The species entered for assay [1] is Homo sapiens. Briefly: In vitro inhibition for TNF-alpha production from LPS-stimulated human whole blood. In kind it is functional.
Assay [2] concerns the target Stromelysin-1 (Homo sapiens, UniProt P08254). Nature of the assay: Inhibition of MMP-3 (Matrix metalloprotease-3).
For assay [3], the target named is T1, Interstitial collagenase (Homo sapiens, UniProt P03956).
T1 sequence (P03956 whole entry): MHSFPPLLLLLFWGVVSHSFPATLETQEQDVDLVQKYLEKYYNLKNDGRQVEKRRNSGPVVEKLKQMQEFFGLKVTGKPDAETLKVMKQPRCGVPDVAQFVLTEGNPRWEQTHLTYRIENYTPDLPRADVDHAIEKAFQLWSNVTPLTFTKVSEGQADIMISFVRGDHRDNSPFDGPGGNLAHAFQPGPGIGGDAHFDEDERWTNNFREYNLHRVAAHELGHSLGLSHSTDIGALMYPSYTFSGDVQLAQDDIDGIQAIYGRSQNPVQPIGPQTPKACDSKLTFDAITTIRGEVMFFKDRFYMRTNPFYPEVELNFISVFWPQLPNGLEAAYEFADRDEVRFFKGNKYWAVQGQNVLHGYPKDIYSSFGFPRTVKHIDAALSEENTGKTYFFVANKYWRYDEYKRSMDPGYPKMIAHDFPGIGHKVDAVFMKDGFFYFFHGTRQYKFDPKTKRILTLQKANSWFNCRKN
Briefly: Inhibition of MMP-1 (Matrix metalloprotease-1).

For assay [4], the target named is Matrix metalloproteinase-9 (Homo sapiens, UniProt P14780). Nature of the assay: Inhibition of MMP-9 (Matrix metalloprotease-9).

Each structure is given as a SMILES string. pIC50, pKi: −log10 of the molar value.

The pIC50 is −log10 of the IC50, conventionally taken in molar units. For orientation: pKi means the negative decadic logarithm of the Ki, by convention in mol/L.

Chain of Stromelysin-1 (P08254 whole entry): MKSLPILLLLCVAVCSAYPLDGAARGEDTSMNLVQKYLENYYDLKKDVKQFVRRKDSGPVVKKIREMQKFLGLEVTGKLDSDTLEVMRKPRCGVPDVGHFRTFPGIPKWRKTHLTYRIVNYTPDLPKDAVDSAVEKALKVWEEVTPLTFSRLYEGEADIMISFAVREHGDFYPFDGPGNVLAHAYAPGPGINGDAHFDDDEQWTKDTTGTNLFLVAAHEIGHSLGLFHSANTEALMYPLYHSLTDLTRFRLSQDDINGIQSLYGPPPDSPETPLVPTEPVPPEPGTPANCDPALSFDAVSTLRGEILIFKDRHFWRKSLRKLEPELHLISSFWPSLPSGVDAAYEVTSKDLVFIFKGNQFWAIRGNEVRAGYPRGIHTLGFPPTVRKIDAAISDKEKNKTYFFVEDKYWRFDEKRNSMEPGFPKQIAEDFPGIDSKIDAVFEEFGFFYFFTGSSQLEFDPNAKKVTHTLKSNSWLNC
Chain of Matrix metalloproteinase-9 (P14780 whole entry): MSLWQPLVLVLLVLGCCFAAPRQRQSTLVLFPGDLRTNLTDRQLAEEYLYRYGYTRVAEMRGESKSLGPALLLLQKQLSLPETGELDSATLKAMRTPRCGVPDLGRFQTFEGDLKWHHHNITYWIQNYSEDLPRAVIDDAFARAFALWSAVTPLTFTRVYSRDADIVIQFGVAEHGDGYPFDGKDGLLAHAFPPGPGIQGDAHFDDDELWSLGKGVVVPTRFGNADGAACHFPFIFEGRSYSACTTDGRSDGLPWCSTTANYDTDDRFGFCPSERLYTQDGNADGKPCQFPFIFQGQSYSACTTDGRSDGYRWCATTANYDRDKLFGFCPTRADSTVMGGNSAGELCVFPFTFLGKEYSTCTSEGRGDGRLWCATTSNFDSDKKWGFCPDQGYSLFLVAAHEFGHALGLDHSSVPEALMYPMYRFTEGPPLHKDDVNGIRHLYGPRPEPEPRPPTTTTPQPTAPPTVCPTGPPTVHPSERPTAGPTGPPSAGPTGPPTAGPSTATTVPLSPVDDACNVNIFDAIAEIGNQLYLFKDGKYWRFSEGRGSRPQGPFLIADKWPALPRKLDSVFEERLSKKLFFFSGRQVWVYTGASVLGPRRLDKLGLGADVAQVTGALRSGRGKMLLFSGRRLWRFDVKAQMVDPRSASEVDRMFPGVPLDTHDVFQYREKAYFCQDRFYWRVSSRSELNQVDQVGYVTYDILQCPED

Compound `CNC(=O)[C@@H](Cc1ccc(OC)cc1)NC(=O)[C@H](CC(C)C)[C@H](C)C(=O)NO` gave a pIC50 in assay [1] of 5.74. In addition, the pKi in assay [2] is 8.71; in assay [3], 9.06; in assay [4], 9.89.

For the compound `CNC(=O)[C@@H]1Cc2ccc(cc2)OCCC[C@H](C(=O)NO)[C@@H](CC(C)C)C(=O)N1`, in assay [1], the pIC50 is 5.92. Also, the pKi is 7.49 in assay [2], 8.92 in assay [3] and 8.74 in assay [4].

The compound `CNC(=O)[C@@H]1CCCCNC(=O)CO[C@H](C(=O)NO)[C@@H](CC(C)C)C(=O)N1` showed a pIC50 in assay [1] of 5.19. In addition, the figures for the pKi in assay [2], in assay [3] and in assay [4] were 7.62, 8.55 and 8.59, respectively.

Source of the values: ChEMBL document CHEMBL1131224, “Design and synthesis of cyclic inhibitors of matrix metalloproteinases and TNF-alpha production” (J Med Chem, 1998).
